# Test results from patent publication US20200237742A1, “Serdexmethylphenidate Conjugates, Compositions And Methods Of Use Thereof” (priority 2018, published 2020).
# Structures can show the parent of a compound that is named as a salt.
# What was measured:
# [1] = Intravenous pharmacokinetic study (KP415.A03) in recreational stimulant users; details: following intravenous administration
# Experimental: (§1) A study was conducted in humans to assess the intravenous abuse potential of serdexmethylphenidate relative to unconjugated d-methylphenidate and placebo in recreational stimulant abusers. This was a Phase 1, randomized, double-blind study in which serdexmethylphenidate and d-methylphenidate were administered intravenously in recreational stimulant users with a history of non-oral abuse. In Part A of the study, subjects (Cohort 1) participated in a dose-escalation phase to determine the optimal dose of intravenous d-methylphenidate based on tolerability and abuse-related pharmacodynamic assessments. […] The doses of serdexmethylphenidate and d-methylphenidate are equivalent with respect to molar amount of d-methylphenidate. FDA-recommended abuse potential measures and blood samples were collected at different times after dosing. Safety assessments were performed throughout the study.
# [2] = system: recreational stimulant abusers; experiment: Intravenous abuse potential study, VAS pharmacodynamic assessments; assay type: in vivo, human
# Description: “Drug liking” score, used herein, is the score used to assess the degree that a human participant likes a drug effect at the time the question is being asked (that is, at the moment). It is scored using a 0 to 100 point bipolar visual analogue scale (VAS) anchored in the center with a neutral anchor of “neither like nor dislike” (score of 50), on the left with “strong disliking” (score of 0) and on the right with “strong liking” (score of 100).
# “Euphoria” or “Feeling High” score, used herein, is the term to describe the score used to assess the degree that a human participant is high at the time the question is being asked (that is, at the moment). It is scored using a 0 to 100 point unipolar visual analogue scale (VAS) anchored on the left with “Not at All” (score of 0) and on the right with “Extremely” (score of 100).
# “Take Drug Again” score, used herein, is the term to describe the score used to assess the degree that a human participant wants to take the drug again, if given the opportunity, based on his/her opinion now, i.e., at the time the question is being asked. It is scored using a 0 to 100 point unipolar visual analogue scale (VAS) anchored on the left with “Definitely Would Not” (score of 0) and on the right with “Definitely Would” (score of 100).
# “Overall Drug Liking” score, used herein, is the term to describe the score used to assess the human subject's global perception of drug liking (i.e., the subjective effects over the whole course of the drug experience including any carryover effects). Subjects respond to the statement “Overall, my liking for this drug is.” The question is scored using a 0-100 point bipolar VAS anchored on the left with “Strong Disliking” (score of 0); “Neither Like nor Dislike” (score of 50) in the middle, and anchored on the right with “Strong Liking” (score of 100). This scale has the advantage of the human subject being relatively less affected or unaffected by acute study drug effects (if any) by the time of the assessment.
# “Good Effects” score, used herein, is the term to describe the score used to assess the degree that a human participant is feeling good drug effects at the time the question is being asked (that is, at the moment). Subjects respond to the statement “At this moment, I can feel good drug effects.” It is scored using a 0 to 100 point unipolar visual analogue scale (VAS) anchored on the left with “Not at All” (score of 0) and on the right with “Extremely” (score of 100).
# Safety assessments were performed throughout the study.
# [3] = Intranasal study (KP415.A02), plasma pharmacokinetics; assay type: in vivo, human; details: intranasal administration
# Experimental: On dosing days in the Treatment Phase, blood samples were collected for the measurement of the plasma concentrations of SDX, d-methylphenidate (d-MPH), 1-methylphenidate (1-MPH) and ritalinic acid at predose and at 0.25, 0.5, 0.75, 1, 1.5, 2, 3, 4, 5, 6, 7, 8, 9, 10, 12, 16, 24, 36, and 48 hours ±5 minutes after each dose of study drug. […] All VAS pharmacodynamic assessments except Take Drug Again and Overall Drug Liking were performed at 0.25, 0.5, 0.75, 1, 1.5, 2, 3, 4, 5, 6, 7, 8, 10, 12, 24 hours ±5 minutes postdose. In addition, predose assessments of Feeling High, and Drowsiness/Alertness were collected. The Take Drug Again and Overall Drug Liking VAS assessments were performed at 12 and 24 hours ±5 minutes postdose. Ease of Nasal Insufflation scores were completed within 5 minutes after the completion of each intranasal drug administration during the Treatment Phase.
# [4] = system: healthy, nondependent, recreational stimulant users; experiment: Oral abuse potential study, VAS pharmacodynamic assessments
# [5] = system: recreational stimulant abusers; experiment: Intravenous study, treatment-emergent adverse events; details: d-methylphenidate treatment vs serdexmethylphenidate
# Experimental: as §1
# [6] = Focalin XR 80 mg, phentermine HCl 60 mg, bipolar VAS
# [7] = Focalin XR 80 mg, phentermine HCl 60 mg, unipolar VAS
# [8] = phentermine HCl 60 mg vs SDX Cl 120 mg
# [9] = phentermine HCl 60 mg vs SDX Cl 240 mg
# [10] = phentermine HCl 60 mg vs placebo
smiles,measurement,setting,value
COC(=O)[C@H](c1ccccc1)[C@H]1CCCCN1C(=O)OC[n+]1cccc(C(=O)N[C@@H](CO)C(=O)O)c1 [serdexmethylphenidate],conversion of serdexmethylphenidate to d-methylphenidate,[1],very little conversion
same,"Median Difference Drug Liking Emax, A vs C","[2]; SDX Cl 30 mg vs placebo, bipolar VAS",not significantly different
same,"Median Difference Drug Liking Emax, B vs A","[2]; d-MPH HCl 15 mg vs SDX Cl 30 mg, bipolar VAS",significantly lower
same,effects on multiple abuse-related endpoints vs intravenous placebo,[2]; subjects with a history of non-oral abuse of stimulants,statistically similar
same,conversion of SDX to the active d-methylphenidate when snorted,[3],not readily or effectively converted
"CC(C)(N)Cc1ccccc1 [phentermine hydrochloride, reference compound]","Drug Liking Emax, Median",[4]; [6],84.0
same,"Feeling Alert/Drowsy Emax, Median",[4]; [6],84.0
same,"Overall Drug Liking Emax, Median",[4]; [6],77.0
same,"Take Drug Again Emax, Median",[4]; [6],75.0
same,"Any Effects Emax, Median",[4]; [7],74.0
same,"Bad Effects Emax, Median",[4]; [7],7.0
same,"Feeling High Emax, Median",[4]; [7],76.0
same,"Good Effects Emax, Median",[4]; [7],75.0
same,"Mean Difference Any Effects Emax, D vs A",[4]; [8],37.4
same,"Mean Difference Bad Effects Emax, D vs A",[4]; [8],11.9
same,"Mean Difference Feeling Alert/Drowsy Emax, D vs A",[4]; [8],15.7
same,"Mean Difference Feeling High Emax, D vs A",[4]; [8],36.0
same,"Mean Difference Good Effects Emax, D vs A",[4]; [8],35.5
same,"Mean Difference Overall Drug Liking Emax, D vs A",[4]; [8],14.9
same,"Mean Difference Take Drug Again Emax, D vs A",[4]; [8],14.9
same,"Mean Difference Drug Liking Emax, D vs A","[4]; phentermine HCl 60 mg vs SDX Cl 120 mg, margin 10",15.5
same,"Mean Difference Any Effects Emax, D vs B",[4]; [9],28.0
same,"Mean Difference Bad Effects Emax, D vs B",[4]; [9],4.6
same,"Mean Difference Feeling Alert/Drowsy Emax, D vs B",[4]; [9],12.2
same,"Mean Difference Feeling High Emax, D vs B",[4]; [9],27.7
same,"Mean Difference Good Effects Emax, D vs B",[4]; [9],30.2
same,"Mean Difference Overall Drug Liking Emax, D vs B",[4]; [9],15.3
same,"Mean Difference Take Drug Again Emax, D vs B",[4]; [9],15.4
same,"Mean Difference Drug Liking Emax, D vs B","[4]; phentermine HCl 60 mg vs SDX Cl 240 mg, margin 10",14.0
same,"Bad Effects Emax, median difference D vs E",[4]; [10],8.0c
same,"Mean Difference Any Effects Emax, D vs E",[4]; [10],48.5
same,"Mean Difference Feeling Alert/Drowsy Emax, D vs E",[4]; [10],23.5
same,"Mean Difference Feeling High Emax, D vs E",[4]; [10],46.4
same,"Mean Difference Good Effects Emax, D vs E",[4]; [10],47.6
same,"Mean Difference Overall Drug Liking Emax, D vs E",[4]; [10],18.6
same,"Mean Difference Take Drug Again Emax, D vs E",[4]; [10],17.1
same,"Mean Difference Drug Liking Emax, D vs E","[4]; phentermine HCl 60 mg vs placebo, margin 10, hydrochloride",22.3
same,"Mean Difference Drug Liking Emax, D vs E","[4]; phentermine HCl 60 mg vs placebo, margin 10, listed as Phentermine, hydrochloride",statistically significantly higher
"COC(=O)[C@H](c1ccccc1)[C@H]1CCCCN1 [d-methylphenidate, methyl (R)-2-phenyl-2-((R)-piperidin-2-yl)acetate, reference compound]","Drug Liking Emax, statistical analysis vs. placebo",[2]; d-MPH HCl 15 mg vs placebo (study validity),significantly higher
same,"Typical stimulant-related Adverse Events (euphoric mood, hypervigilance, increased heart rate)",[5],more common
